Reference: the NIST ThermoML archive (doi:10.1016/j.jct.2011.09.003)

Assays:
[1] = for surface tension liquid-gas: digital tensiometer; for mass density: 101.33 kPa, Liquid, Vibrating tube method
[2] = xn = mol fraction of the nth substance listed; conditions: 298.15 K; for surface tension liquid-gas: digital tensiometer; for mass density: 101 kPa, Liquid, Vibrating tube method

CCCC[n+]1ccccc1.O=[N+]([O-])[O-] [1-butylpyridinium nitrate]
[1]
Conditions | mass density [kg/m3] | surface tension liquid-gas [mN/m]
293.15 K | 1192.7 | 52.32
298.15 K | 1188.5 | 51.53
303.15 K | 1185.4 | 51.21
308.15 K | 1181.2 | 50.97
313.15 K | 1176.5 | 50.53
318.15 K | 1173.5 | 49.99
323.15 K | 1169.2 | 49.53
328.15 K | 1165.6 | 49.3
333.15 K | 1163.2 | 48.96
338.15 K | 1159.4 | 48.64

CCCC[n+]1ccccc1.O=[N+]([O-])[O-] [1-butylpyridinium nitrate] + O
[2]
Conditions | mass density [kg/m3] | surface tension liquid-gas [mN/m]
x1 = 0.0097 | 1016.3 | 43.71
x1 = 0.015 | 1024.4 | 40.11
x1 = 0.0359 | 1051.1 | 37.59
x1 = 0.0498 | 1067 | 37.5
x1 = 0.0593 | 1076.1 | 37.6
x1 = 0.0816 | 1092.6 | 38.02
x1 = 0.1136 | 1113.6 | 40.03
x1 = 0.2067 | 1144.7 | 41.69
x1 = 0.3247 | 1165.5 | 44.01
x1 = 0.447 | 1176.9 | 46.05
x1 = 0.633 | 1182.2 | 48.01
x1 = 0.7604 | 1185.3 | 49.25
x1 = 0.8226 | 1186.6 | 49.56
x1 = 0.9023 | 1188 | 50.78
x1 = 1 | 1188.5 | 51.53

O [water] + CCCC[n+]1ccccc1.O=[N+]([O-])[O-]
[2], x2 = 0
Conditions | mass density [kg/m3] | surface tension liquid-gas [mN/m]
– | 1000 | 72.03
